From paper PMC2873402, “Discovery of High-Affinity Protein Binding Ligands – Backwards” (PLoS ONE, 2010)

How the values were obtained:
[1] = target: synbody variant in which the C-terminal Cys was replaced with a Lys-Biotin; experiment: pull-down; IP: biotin synbody on streptavidin magnetic beads; ^35S-labeled AKT1 in the IVT mixture diluted from 41.5 nM to 80 pM (AKT1 about 3% of total protein); liquid scintillation counting; 1:1 fit in GraphPad Prism
AKT1 = AKT1 (Homo sapiens, UniProt P31749); experiment: AKT1 binding site mapping by crosslinking and MS; set-up: N-terminal vector leader of pEXP5-NT (6xHis + TEV site by own knowledge of the vector); made in house; host or cells: Expressway Mini Cell-Free Expression System (in vitro translation); conditions: for region of AKT1 crosslinked: 10 µM peptide, 2.5 µM AKT1, 100 µM BS3-d0/d4 (1:1), trypsin, MALDI-TOF-MS; for likely binding site on AKT1: from relative intensity of fragments and proximity of lysines; for AKT1 lysine(s) likely cross-linked: surface-exposed lysines mapped on PDB 3CQU
Chain of AKT1 (P31749 whole entry, the tested form may be a part): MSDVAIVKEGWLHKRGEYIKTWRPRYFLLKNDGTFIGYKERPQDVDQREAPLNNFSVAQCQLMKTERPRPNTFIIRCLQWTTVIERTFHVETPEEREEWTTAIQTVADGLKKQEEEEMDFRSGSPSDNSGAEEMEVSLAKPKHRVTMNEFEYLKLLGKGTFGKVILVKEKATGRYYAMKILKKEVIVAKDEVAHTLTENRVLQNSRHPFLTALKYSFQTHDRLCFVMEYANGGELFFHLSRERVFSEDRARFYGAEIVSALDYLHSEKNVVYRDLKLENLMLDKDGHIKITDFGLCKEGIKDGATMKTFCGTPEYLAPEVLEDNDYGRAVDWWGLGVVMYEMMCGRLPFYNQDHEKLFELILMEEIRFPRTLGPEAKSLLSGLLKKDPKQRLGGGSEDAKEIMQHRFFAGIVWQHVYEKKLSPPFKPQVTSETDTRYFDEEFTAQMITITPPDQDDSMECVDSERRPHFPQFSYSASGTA
Excerpt: As an orthogonal assessment of whether the peptides bind different sites on AKT1, each peptide was crosslinked to AKT1 in vitro using a commercially available set of deuterated / non-deuterated crosslinkers (BS^3-(d0/d4)). The crosslinkers chemically conjugate primary amines that are in close proximity to one another (11.4 Å) and the crosslinked complex is then subjected to enzymatic digestion and analysis by mass spectrometry. Crosslinked peptides are identified by the presence of a pair of ions that are separated by 4 mass units indicating crosslinking with both non-deuterated and deuterated crosslinkers. Peptide 1 has two possible crosslinking sites (N-terminus and K at position 3) and peptide 2 has one possible crosslinking site at the N-terminus. A 10 µM solution of each peptide was added to 2.5 µM AKT1 and incubated for 1 hour prior to the addition of a 100 µM solution of a 1∶1 mixture of crosslinkers. After crosslinking, the mixture was digested with trypsin and analyzed by MALDI-TOF-MS. […] The location of each AKT1 fragment was mapped onto a crystal structure of residues 139–480 of AKT1 (PDB #3CQU) (Figure 4C).
10 µM of peptide 1 and peptide 2 were individually incubated with 2.5 µM of recombinant AKT1 (produced in house) in PBS buffer (200 uL total volume) for one hour, after which an equimolar ratio of BS^3-d0∶BS^3-d4 (Thermo Scientific, Rockford, IL) crosslinker was added for a total crosslinker concentration of 100 µM. The same concentration of crosslinker was added to a 200 µL control sample containing only 2.5 µM AKT1. Crosslinking was performed for one hour. After crosslinking, free peptide and crosslinker were removed from the mixture with a 30 kDa spin filter and at the same time the buffer was exchanged with 100 mM ammonium bicarbonate pH 8.0. Proteomics grade trypsin (Sigma-Aldrich, St. Louis, MO) was added to all samples at a ratio of 1∶30 (mol∶mol) Trypsin∶AKT1 and incubated overnight at 37°C. Digested samples were lyophilized and reconstituted in 5 µL acetonitrile∶H2O (1∶1) containing 0.1% trifluoroacetic acid and spotted on a MALDI target plate along with ∝-cyano-4-hydroxycinnamic acid MALDI matrix. Mass spectra were obtained on an Ultraflex-III MALDI TOF-TOF (Bruker, Billerica, MA) and analyzed in FlexAnalysis (Bruker, Billerica, MA).

Chain of ^35S-labeled AKT1 produced by in vitro translation (P31749 whole entry): as the sequence (P31749 whole entry, the tested form may be a part) above

Substance	Kd [1] [nM]	region of AKT1 crosslinked (AKT1)	likely binding site on AKT1 (AKT1)	AKT1 lysine(s) likely cross-linked (AKT1)
^35S-labeled AKT1 produced by in vitro translation (from UniProt P31749 1-480) (natural protein)	4.9			
AHKVVPQRQIRHAYNRYGSG [peptide 1, 20-aa peptide arm of the synbody]		crosslinked to a region of AKT1 that spans the Protein Kinase (PK) and AGC Kinase domain	in a region of low homology between AKT1, AKT2, and AKT3	^419Lys
FRGWAHIFFGPHVIYRGGSG [peptide 2, 20-aa peptide arm of the synbody]		crosslinked to multiple regions on AKT1 (Figure 4A, Figure 4B, Table S1), with the majority of crosslinking occurring in the PK domain	primary binding site for peptide 2 is likely on the PK domain and that a secondary binding site lies on the AGC domain	^182Lys, ^276Lys, and ^481Lys
